Experimental data as given in ChEMBL document CHEMBL5550132, “Structure-activity relationship in NOD2 agonistic muramyl dipeptides” (Eur J Med Chem, 2024).

Tests used:
[1] = molecular target: T1, Nuclear factor NF-kappa-B complex (Homo sapiens) (UniProt Q00653+P19838+Q04206); assay: Activation of NF-KappaB (unknown origin) expressed in HEK293T cells assessed as fold change at 10 ng incubated for 12 hrs by Renilla luciferase assay; assay type: cell-based; details: filed as activator
[2] = molecular target: T1, Nuclear factor NF-kappa-B complex (Homo sapiens); assay: Activation of NF-KappaB (unknown origin) expressed in HEK293T cells assessed as fold change at 10 nM incubated for 12 hrs by Renilla luciferase assay; assay type: cell-based; details: filed as activator
[3] = molecular target: T1, Nuclear factor NF-kappa-B complex (Homo sapiens); assay: Activation of NF-KappaB (unknown origin) expressed in HEK293T cells assessed as fold change at 100 nM incubated for 12 hrs by Renilla luciferase assay; assay type: cell-based; details: filed as activator
[4] = molecular target: T1, Nuclear factor NF-kappa-B complex (Homo sapiens); assay: Activation of NF-KappaB (unknown origin) expressed in HEK293T cells assessed as fold change at 1000 nM incubated for 12 hrs by Renilla luciferase assay; assay type: cell-based; details: filed as activator
Cavia porcellus [5] = species: Cavia porcellus; assay: Induction of delayed type hypersensitivity in ABA-BSA immunized Hartley Guinea pigs assessed as reduction in skin lesions at 100 ug measured for 24 hrs; assay type: functional; details: dose 100 µg
Cavia porcellus [6] = species: Cavia porcellus; assay: Induction of delayed type hypersensitivity in ABA-BSA immunized Hartley Guinea pigs assessed as reduction in skin lesions at 100 ug measured for 48 hrs; assay type: functional; details: dose 100 µg
[7] = molecular target: T1, Nuclear factor NF-kappa-B complex (Homo sapiens); assay: Activation of NF-KappaB (unknown origin) expressed in HEK293T cells assessed as fold change at 20 uM; assay type: cell-based; details: filed as activator

T1 sequence (P19838 whole entry, looked up): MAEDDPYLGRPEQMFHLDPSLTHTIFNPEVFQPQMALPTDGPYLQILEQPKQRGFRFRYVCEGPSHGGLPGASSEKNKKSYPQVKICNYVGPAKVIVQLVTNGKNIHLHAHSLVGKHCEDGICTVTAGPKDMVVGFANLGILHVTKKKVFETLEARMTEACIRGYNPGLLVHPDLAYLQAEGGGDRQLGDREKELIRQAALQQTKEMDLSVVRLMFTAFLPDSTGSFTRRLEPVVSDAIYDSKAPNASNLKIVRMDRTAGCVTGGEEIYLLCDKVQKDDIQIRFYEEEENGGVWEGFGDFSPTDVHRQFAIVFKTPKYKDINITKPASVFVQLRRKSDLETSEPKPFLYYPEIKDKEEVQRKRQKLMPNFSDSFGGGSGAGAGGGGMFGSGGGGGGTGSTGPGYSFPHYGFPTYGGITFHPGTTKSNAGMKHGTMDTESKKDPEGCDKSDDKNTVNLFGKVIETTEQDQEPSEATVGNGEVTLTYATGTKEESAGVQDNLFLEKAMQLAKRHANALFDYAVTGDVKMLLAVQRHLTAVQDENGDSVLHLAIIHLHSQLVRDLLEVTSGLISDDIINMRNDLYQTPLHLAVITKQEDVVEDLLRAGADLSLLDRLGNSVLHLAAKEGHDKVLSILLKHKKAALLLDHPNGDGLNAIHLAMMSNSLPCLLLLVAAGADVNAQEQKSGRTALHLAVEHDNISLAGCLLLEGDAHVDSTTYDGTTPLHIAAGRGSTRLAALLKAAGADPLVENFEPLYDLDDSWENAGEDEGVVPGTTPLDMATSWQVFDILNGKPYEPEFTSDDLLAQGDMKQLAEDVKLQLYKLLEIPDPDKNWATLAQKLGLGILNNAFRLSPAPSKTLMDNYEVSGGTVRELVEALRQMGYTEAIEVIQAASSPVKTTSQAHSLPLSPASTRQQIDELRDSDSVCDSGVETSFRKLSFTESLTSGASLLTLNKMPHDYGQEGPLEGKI
T1 sequence (Q00653 whole entry, looked up): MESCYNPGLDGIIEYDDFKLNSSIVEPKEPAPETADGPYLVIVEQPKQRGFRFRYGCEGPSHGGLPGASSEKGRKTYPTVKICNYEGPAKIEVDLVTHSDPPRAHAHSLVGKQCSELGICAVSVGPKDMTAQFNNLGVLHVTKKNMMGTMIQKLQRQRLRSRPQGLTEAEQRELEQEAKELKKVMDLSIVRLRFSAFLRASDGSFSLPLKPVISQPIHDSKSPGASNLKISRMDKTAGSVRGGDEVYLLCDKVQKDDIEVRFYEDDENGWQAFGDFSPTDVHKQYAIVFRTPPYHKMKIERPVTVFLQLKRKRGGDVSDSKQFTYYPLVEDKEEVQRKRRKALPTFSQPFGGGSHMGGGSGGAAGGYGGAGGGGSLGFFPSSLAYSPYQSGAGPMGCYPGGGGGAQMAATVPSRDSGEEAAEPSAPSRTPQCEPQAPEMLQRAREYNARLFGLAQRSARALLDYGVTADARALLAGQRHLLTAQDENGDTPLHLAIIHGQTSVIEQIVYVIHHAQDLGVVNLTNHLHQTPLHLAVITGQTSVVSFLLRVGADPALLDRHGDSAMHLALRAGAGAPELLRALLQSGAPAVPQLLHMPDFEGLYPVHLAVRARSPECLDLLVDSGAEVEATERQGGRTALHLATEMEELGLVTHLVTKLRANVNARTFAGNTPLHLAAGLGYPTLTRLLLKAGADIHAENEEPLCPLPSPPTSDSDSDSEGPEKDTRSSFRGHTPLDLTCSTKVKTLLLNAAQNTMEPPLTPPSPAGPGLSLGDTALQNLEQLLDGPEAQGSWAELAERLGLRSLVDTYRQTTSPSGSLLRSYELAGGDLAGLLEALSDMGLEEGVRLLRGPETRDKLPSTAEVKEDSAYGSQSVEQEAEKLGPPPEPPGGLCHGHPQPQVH
T1 sequence (Q04206 whole entry, looked up): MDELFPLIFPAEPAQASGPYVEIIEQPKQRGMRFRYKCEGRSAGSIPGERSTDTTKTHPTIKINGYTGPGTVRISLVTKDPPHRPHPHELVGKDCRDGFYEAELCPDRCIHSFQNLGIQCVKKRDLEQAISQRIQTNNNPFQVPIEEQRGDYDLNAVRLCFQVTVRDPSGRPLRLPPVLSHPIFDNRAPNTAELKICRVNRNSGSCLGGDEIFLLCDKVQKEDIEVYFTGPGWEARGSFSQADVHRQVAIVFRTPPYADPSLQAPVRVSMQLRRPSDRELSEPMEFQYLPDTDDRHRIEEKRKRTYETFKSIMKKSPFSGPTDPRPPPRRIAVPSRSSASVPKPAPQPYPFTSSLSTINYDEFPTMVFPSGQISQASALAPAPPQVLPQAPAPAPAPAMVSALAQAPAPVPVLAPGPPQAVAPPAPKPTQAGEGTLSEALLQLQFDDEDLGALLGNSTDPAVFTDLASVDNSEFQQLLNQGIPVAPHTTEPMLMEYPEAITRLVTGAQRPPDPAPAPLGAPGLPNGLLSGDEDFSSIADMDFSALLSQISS

SMILES | fold change (FC) [1] | fold change (FC) [2] | fold change (FC) [3] | fold change (FC) [4] | Activity (Cavia porcellus [5]) | Activity (Cavia porcellus [6]) | fold change (FC) [7]
CC(=O)N[C@@H]1[C@@H](O[C@H](C)C(=O)N[C@@H](C)C(=O)N[C@H](CCC(=O)O)C(=O)OCCCl)[C@H](O)[C@@H](CO)O[C@H]1O | 4.2 | 4.2 | 6.6 | 6.55 |  |  | 
CC(=O)NC[C@H]1O[C@@H](O)[C@H](NC(C)=O)[C@@H](O[C@H](C)C(=O)N[C@@H](C)C(=O)N[C@H](CCC(=O)O)C(N)=O)[C@@H]1O |  |  |  |  | 21.4 mm | 16.7 mm | 
C[C@H](NC(=O)[C@@H](C)O[C@@H]1[C@@H](N)[C@H](O)O[C@H](CN)[C@H]1O)C(=O)N[C@H](CCC(=O)O)C(N)=O |  |  |  |  | 15.1 mm | 9.3 mm | 
CCCCCCCCCCCCCCOC(=O)CC[C@@H](NC(=O)[C@H](C)NC(=O)[C@@H](C)O[C@H]1[C@H](O)[C@@H](CO)O[C@@H](OCc2ccccc2)[C@@H]1N=[N+]=[N-])C(N)=O |  |  |  |  |  |  | 0.04
CCCCCCCCCCCCCCCCCCCC(=O)NC[C@H]1O[C@@H](O)[C@H](N)[C@@H](O[C@H](C)C(=O)N[C@@H](C)C(=O)N[C@H](CCC(=O)O)C(N)=O)[C@@H]1O.Cl |  |  |  |  | 8 mm |  | 
CCCCCCCCCCCCCCCCCC(=O)NC[C@H]1O[C@@H](O)[C@H](NC(C)=O)[C@@H](O[C@H](C)C(=O)N[C@H](C(=O)N[C@H](CCC(=O)O)C(N)=O)C(C)C)[C@@H]1O |  |  |  |  | 22.5 mm | 18.5 mm | 
CC(=O)N[C@@H]1[C@@H](O[C@H](C)C(=O)N[C@@H](CO)C(=O)N[C@H](CCC(=O)O)C(N)=O)[C@H](O)[C@@H](CO)O[C@H]1O |  |  |  |  | 23.1 mm | 21.6 mm | 
CC(=O)N[C@@H]1[C@@H](O[C@H](C)C(=O)N[C@@H](C)C(=O)N[C@H](CCC(=O)O)C(=O)OCCc2ccccc2)[C@H](O)[C@@H](CO)O[C@H]1O | 5.6 | 5.6 | 7 | 6 |  |  | 
CC(=O)N[C@@H]1[C@@H](O[C@H](C)C(=O)N[C@@H](CO)C(=O)N[C@H](CCC(=O)O)C(N)=O)[C@H](O)[C@@H](CN)O[C@H]1O |  |  |  |  | 21.6 mm | 22.3 mm | 
CCCCCCNC(=O)[C@@H](CCC(=O)O)NC(=O)[C@H](C)NC(=O)[C@@H](C)O[C@H]1[C@H](O)[C@@H](CO)O[C@@H](O)[C@@H]1NC(C)=O | 1.1 | 1.1 | 1.15 | 2.8 |  |  | 
C[C@H](NC(=O)[C@@H](C)O[C@H]1[C@H](O)[C@@H](CO)O[C@@H](O)[C@@H]1NC(=O)CCC(=O)O)C(=O)N[C@H](CCC(=O)O)C(N)=O |  |  |  |  |  |  | 2.3
CCOC(=O)CC[C@@H](NC(=O)[C@H](C)NC(=O)[C@@H](C)O[C@H]1[C@H](O)[C@@H](CO)O[C@@H](O)[C@@H]1NC(C)=O)C(=O)OCC | 2.3 | 2.3 | 4.7 | 6.5 |  |  | 
CCCCCCCCOC(=O)[C@@H](CCC(=O)O)NC(=O)[C@H](C)NC(=O)[C@@H](C)O[C@H]1[C@H](O)[C@@H](CO)O[C@@H](O)[C@@H]1NC(C)=O | 6.1 | 6.1 | 6.9 | 6.3 |  |  | 
CC(=O)N[C@@H]1[C@@H](O[C@H](C)C(=O)N[C@H](C(=O)N[C@H](CCC(=O)O)C(N)=O)C(C)C)[C@H](O)[C@@H](CN)O[C@H]1O |  |  |  |  | 20.4 mm | 15.3 mm | 
CCCCCCCCOC(=O)CC[C@@H](NC(=O)[C@H](C)NC(=O)[C@@H](C)O[C@H]1[C@H](O)[C@@H](CO)O[C@@H](OCc2ccccc2)[C@@H]1N=[N+]=[N-])C(N)=O |  |  |  |  |  |  | 0.04
CC(=O)N[C@@H]1[C@@H](O[C@H](C)C(=O)N[C@@H](C)C(=O)N[C@H](CCC(=O)O)C(=O)OC2CCCCC2)[C@H](O)[C@@H](CO)O[C@H]1O | 4.6 | 4.6 | 6.8 | 6.55 |  |  | 
CC(=O)N[C@@H]1[C@@H](O[C@H](C)C(=O)N[C@H](C(=O)N[C@H](CCC(=O)O)C(N)=O)C(C)C)[C@H](O)[C@@H](CO)O[C@H]1O |  |  |  |  | 25.2 mm | 24.6 mm | 
CC(=O)N[C@@H]1[C@@H](O[C@H](C)C(=O)N[C@@H](C)C(=O)N[C@H](CCC(=O)O)C(=O)O)[C@H](O)[C@@H](CO)O[C@H]1O | 2.5 | 2.5 | 4.5 | 6.1 |  |  | 
C[C@H](NC(=O)[C@@H](C)O[C@H]1[C@H](O)[C@@H](CO)O[C@@H](OCc2ccccc2)[C@@H]1N=[N+]=[N-])C(=O)N[C@H](CCC(=O)OCc1ccccc1)C(N)=O |  |  |  |  |  |  | 0.11
CC(=O)NC[C@H]1O[C@@H](O)[C@H](NC(C)=O)[C@@H](O[C@H](C)C(=O)N[C@H](C(=O)N[C@H](CCC(=O)O)C(N)=O)C(C)C)[C@@H]1O |  |  |  |  | 19.1 mm | 19.5 mm | 
